# In PubChem BioAssay (NCI):
#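 Growth conditions: 96-well plates. Treatment: test compound, 48 hours, 5 concentrations. Analysis: linear interpolation between bracketing concentrations; unreached endpoints set to highest concentration. At the TGI there is no net growth.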
# Experiments:
# Experiment in all cases: NCI anticancer screen, dose series, 48 h
# [1] = test system: DMS 114 small cell lung
# [2] = test system: HOP-92 NSCLC
# [3] = test system: SF-295 CNS
# [4] = test system: SNB-19 CNS
# [5] = test system: CAKI-1 renal
# [6] = test system: MOLT-4 leukemia
# [7] = test system: SNB-75 CNS
# [8] = test system: HL-60(TB) leukemia
# [9] = test system: HCT-15 colon
# [10] = test system: 786-0 renal
# [11] = test system: UACC-257 melanoma
# [12] = test system: OVCAR-5 ovarian
# [13] = test system: OVCAR-8 ovarian
# [14] = test system: NCI-H460 lung
# [15] = test system: SK-MEL-28 melanoma
# [16] = test system: A498 renal
# [17] = test system: HCT-116 colon
# [18] = test system: SF-539 CNS
# [19] = test system: COLO 205 colon
# [20] = test system: SW-620 colon
# [21] = test system: LOX IMVI melanoma
# [22] = test system: UO-31 renal
# [23] = test system: SK-MEL-2 melanoma
# [24] = test system: IGROV1 ovarian
# [25] = test system: KM20L2 colon
# [26] = test system: DLD-1 colon
# [27] = test system: RPMI-8226 leukemia
# [28] = test system: MALME-3M melanoma
# [29] = test system: DMS 273 small cell lung
# [30] = test system: NCI-H23 lung
# [31] = test system: XF 498 CNS
# [32] = test system: TK-10 renal
# [33] = test system: CCRF-CEM leukemia
# [34] = test system: OVCAR-4 ovarian
# [35] = test system: UACC-62 melanoma
# [36] = test system: SF-268 CNS
# [37] = test system: SNB-78 CNS
# [38] = test system: K-562 leukemia
# [39] = test system: OVCAR-3 ovarian
# [40] = test system: HCC-2998 colon
# [41] = test system: SK-MEL-5 melanoma
# [42] = test system: A549 NSCLC
# [43] = test system: NCI-H226 lung
# [44] = test system: HT29 colon
# [45] = test system: M19-MEL melanoma
# [46] = test system: KM12 colon
# [47] = test system: EKVX NSCLC
# [48] = test system: RXF-631 renal
# [49] = test system: SN12C renal
# [50] = test system: M14 melanoma
# [51] = test system: NCI-H522 lung
# [52] = test system: SK-OV-3 ovarian
# [53] = test system: U251 CNS
# [54] = test system: ACHN renal
# [55] = test system: HOP-62 NSCLC
# [56] = test system: HOP-18 NSCLC
# [57] = test system: LXFL 529 NSCLC
# [58] = test system: SR leukemia
# [59] = test system: PC-3 prostate
# [60] = test system: MDA-N
# [61] = test system: T-47D breast
# [62] = test system: MDA-MB-231 breast
# [63] = test system: HS 578T breast
# [64] = test system: MDA-MB-435
# [65] = test system: MCF7 breast
# [66] = test system: DU-145 prostate
compound,measurement,setting,value
Clc1ccc(SC(/C=C/NNC2=NC(c3ccccc3)C(c3ccccc3)=NN2)c2ccccc2)cc1 (stereo not given),TGI,[1],75.6 µM
same,TGI,[2],32.6 µM
same,TGI,[3],89.6 µM
same,TGI,[4],> 100 µM
same,TGI,[5],54.1 µM
same,TGI,[6],38.4 µM
same,TGI,[7],64.7 µM
same,TGI,[8],41.9 µM
same,TGI,[9],> 100 µM
same,TGI,[10],> 100 µM
same,TGI,[11],55.2 µM
same,TGI,[12],> 100 µM
same,TGI,[13],> 100 µM
same,TGI,[14],> 100 µM
same,TGI,[15],69.2 µM
same,TGI,[16],> 100 µM
same,TGI,[17],92 µM
same,TGI,[18],> 100 µM
same,TGI,[19],45.6 µM
same,TGI,[20],> 100 µM
same,TGI,[21],65.7 µM
same,TGI,[22],38.8 µM
same,TGI,[23],40.7 µM
same,TGI,[24],> 100 µM
same,TGI,[25],53.7 µM
same,TGI,[26],> 100 µM
same,TGI,[27],30.3 µM
same,TGI,[28],39.8 µM
same,TGI,[29],> 100 µM
same,TGI,[30],61.6 µM
same,TGI,[31],54.6 µM
same,TGI,[32],> 100 µM
same,TGI,[33],73.1 µM
same,TGI,[34],68.2 µM
same,TGI,[35],85.3 µM
same,TGI,[36],78.1 µM
same,TGI,[37],> 100 µM
same,TGI,[38],53.1 µM
same,TGI,[39],60.5 µM
same,TGI,[40],44.3 µM
same,TGI,[41],31.2 µM
same,TGI,[42],> 100 µM
same,TGI,[43],62.7 µM
same,TGI,[44],39.3 µM
same,TGI,[45],99.4 µM
same,TGI,[46],67.2 µM
same,TGI,[47],> 100 µM
same,TGI,[48],> 100 µM
same,TGI,[49],> 100 µM
same,TGI,[50],46 µM
same,TGI,[51],73.7 µM
same,TGI,[52],> 100 µM
same,TGI,[53],> 100 µM
same,TGI,[54],> 100 µM
same,TGI,[55],> 100 µM
COc1cc([C@@H]2c3cc4c(cc3C(N)C3COC(=O)[C@@H]32)OCO4)cc(OC)c1O (stereo not given in full),TGI,[3],> 100 µM
same,TGI,[4],0.646 µM
same,TGI,[6],1.17 µM
same,TGI,[8],0.555 µM
same,TGI,[9],> 100 µM
same,TGI,[10],> 100 µM
same,TGI,[11],> 100 µM
same,TGI,[17],> 100 µM
same,TGI,[18],0.586 µM
same,TGI,[19],0.362 µM
same,TGI,[20],> 100 µM
same,TGI,[21],> 100 µM
same,TGI,[22],> 100 µM
same,TGI,[56],> 100 µM
same,TGI,[24],> 100 µM
same,TGI,[26],> 100 µM
same,TGI,[27],> 100 µM
same,TGI,[30],> 100 µM
same,TGI,[32],> 100 µM
same,TGI,[33],> 100 µM
same,TGI,[34],> 100 µM
same,TGI,[36],> 100 µM
same,TGI,[38],> 100 µM
same,TGI,[42],> 100 µM
same,TGI,[45],> 100 µM
same,TGI,[57],> 100 µM
same,TGI,[48],0.606 µM
same,TGI,[58],0.428 µM
same,TGI,[49],> 100 µM
same,TGI,[54],> 100 µM
same,TGI,[55],> 100 µM
CN1CCCC2(CCCc3ccccc32)C1 (stereo not given),TGI,[1],> 100 µM
same,TGI,[2],> 100 µM
same,TGI,[3],> 100 µM
same,TGI,[5],> 100 µM
same,TGI,[6],> 100 µM
same,TGI,[7],> 100 µM
same,TGI,[8],> 100 µM
same,TGI,[9],> 100 µM
same,TGI,[10],> 100 µM
same,TGI,[11],> 100 µM
same,TGI,[12],> 100 µM
same,TGI,[13],> 100 µM
same,TGI,[14],> 100 µM
same,TGI,[15],> 100 µM
same,TGI,[16],> 100 µM
same,TGI,[17],> 100 µM
same,TGI,[18],> 100 µM
same,TGI,[19],> 100 µM
same,TGI,[20],> 100 µM
same,TGI,[21],> 100 µM
same,TGI,[22],> 100 µM
same,TGI,[23],> 100 µM
same,TGI,[24],> 100 µM
same,TGI,[25],> 100 µM
same,TGI,[26],> 100 µM
same,TGI,[27],> 100 µM
same,TGI,[28],> 100 µM
same,TGI,[29],> 100 µM
same,TGI,[30],> 100 µM
same,TGI,[32],> 100 µM
same,TGI,[33],> 100 µM
same,TGI,[34],> 100 µM
same,TGI,[35],> 100 µM
same,TGI,[36],> 100 µM
same,TGI,[37],> 100 µM
same,TGI,[38],> 100 µM
same,TGI,[39],> 100 µM
same,TGI,[40],> 100 µM
same,TGI,[41],> 100 µM
same,TGI,[42],> 100 µM
same,TGI,[43],> 100 µM
same,TGI,[44],> 100 µM
same,TGI,[45],> 100 µM
same,TGI,[57],> 100 µM
same,TGI,[46],> 100 µM
same,TGI,[47],> 100 µM
same,TGI,[48],> 100 µM
same,TGI,[58],> 100 µM
same,TGI,[49],> 100 µM
same,TGI,[50],> 100 µM
same,TGI,[51],> 100 µM
same,TGI,[52],> 100 µM
same,TGI,[53],> 100 µM
same,TGI,[54],> 100 µM
same,TGI,[55],> 100 µM
C#Cc1cccc(N2C(=O)CCC2=O)c1,TGI,[59],28.6 µM
same,TGI,[1],21.8 µM
same,TGI,[3],30.1 µM
same,TGI,[4],48 µM
same,TGI,[5],29 µM
same,TGI,[6],23 µM
same,TGI,[7],26.8 µM
same,TGI,[8],10.4 µM
same,TGI,[9],50 µM
same,TGI,[10],40.5 µM
same,TGI,[11],29.9 µM
same,TGI,[60],28.7 µM
same,TGI,[61],56.8 µM
same,TGI,[12],32.5 µM
same,TGI,[13],36.1 µM
same,TGI,[14],71.7 µM
same,TGI,[15],32.3 µM
same,TGI,[62],44.6 µM
same,TGI,[16],29.5 µM
same,TGI,[63],85.8 µM
same,TGI,[17],23.1 µM
same,TGI,[18],46.9 µM
same,TGI,[19],24.8 µM
same,TGI,[20],19.2 µM
same,TGI,[21],32 µM
same,TGI,[22],31.9 µM
same,TGI,[56],34.3 µM
same,TGI,[64],31.2 µM
same,TGI,[23],36.6 µM
same,TGI,[24],37.9 µM
same,TGI,[25],59 µM
same,TGI,[26],50.1 µM
same,TGI,[27],15.9 µM
same,TGI,[28],28.2 µM
same,TGI,[29],47.4 µM
same,TGI,[30],24.5 µM
same,TGI,[65],44.5 µM
same,TGI,[31],29 µM
same,TGI,[32],29.9 µM
same,TGI,[33],8.11 µM
same,TGI,[34],20.5 µM
same,TGI,[35],33.8 µM
same,TGI,[36],33.1 µM
same,TGI,[37],54.6 µM
same,TGI,[38],20.9 µM
same,TGI,[39],37.3 µM
same,TGI,[40],29.5 µM
same,TGI,[41],37.1 µM
same,TGI,[42],42.7 µM
same,TGI,[43],35 µM
same,TGI,[44],34.2 µM
same,TGI,[45],35.3 µM
same,TGI,[57],15.8 µM
same,TGI,[46],19.5 µM
same,TGI,[47],34.3 µM
same,TGI,[48],41.1 µM
same,TGI,[58],4.74 µM
same,TGI,[49],33.6 µM
same,TGI,[66],28.3 µM
same,TGI,[50],11.7 µM
same,TGI,[51],11.9 µM
same,TGI,[52],43 µM
same,TGI,[53],33 µM
same,TGI,[54],30.6 µM
